Measurements as given in PMC11678778, “Anti-Inflammatory Properties of Novel 1,2-Benzothiazine Derivatives and Their Interaction with Phospholipid Model Membranes” (Membranes, 2024).

Tests used:
[1] = DPPH radical scavenging assay; format: physicochemical; settings: 30 min incubation, 37 °C; mean ± SD, n = 3
Experimental: The DPPH assay was conducted to assess the radical scavenging capabilities of the synthesized compounds. Stock solutions of the compounds were formulated in DMSO and subsequently diluted serially to achieve test concentrations ranging from 500 to 10 μM in ethanol. Each sample’s ethanolic DPPH solution was treated with the respective test concentrations and incubated at 37 °C. After a 30 min incubation period, the absorbance was measured at 517 nm, using ethanol as the blank control. Ascorbic acid served as the reference standard, and the IC50 values for the synthesized compounds were determined using the following Equation (2):(2) %DPPH scavenging activity=Abscontrol−Abs sample/Abs (control)×100

[2] = ABTS radical scavenging assay; format: physicochemical; settings: 30 min incubation; mean ± SD, n = 3
Experimental: The activity of ABTS (2,2′-azino-bis(3-ethylbenzothiazoline-6-sulphonic acid)) was assessed to evaluate the radical scavenging potential of the synthesized compounds. The ABTS reagent was generated by combining equal volumes of a 7 mM aqueous solution of ABTS and a 2.45 mM potassium persulfate solution. This mixture was then incubated in the dark at room temperature for 16 h. Following incubation, the solution was diluted with ethanol until the absorbance reached approximately 0.7 ± 0.05 at a wavelength of 734 nm. The stock solutions of the synthesized compounds in DMSO were serially diluted to obtain concentrations ranging from 500 μM to 10 μM in ethanol. The ABTS reagent was then treated with various concentrations of each compound and incubated in the dark at room temperature. After 30 min of incubation, the absorbance was measured at 734 nm, using ethanol as the blank control. Ascorbic acid served as the standard for comparison, and the IC50 values for the synthesized compounds were calculated using the following Equation (3):(3) %ABTS scavenging activity=Abscontrol−Abs sample/Abs (control)×100

COX-2 = molecular target: T1, COX-2 (Homo sapiens, UniProt P35354); test: Cyclooxygenase inhibition assay (colorimetric, peroxidase activity, TMPD oxidation); format: biochemical; settings: for IC50: incubation 2 min, mean ± SD; for Selectivity Ratio: (COX-2/COX-1): ratio of IC50 values
T1 construct: purchased
T1 sequence (P35354 18-604): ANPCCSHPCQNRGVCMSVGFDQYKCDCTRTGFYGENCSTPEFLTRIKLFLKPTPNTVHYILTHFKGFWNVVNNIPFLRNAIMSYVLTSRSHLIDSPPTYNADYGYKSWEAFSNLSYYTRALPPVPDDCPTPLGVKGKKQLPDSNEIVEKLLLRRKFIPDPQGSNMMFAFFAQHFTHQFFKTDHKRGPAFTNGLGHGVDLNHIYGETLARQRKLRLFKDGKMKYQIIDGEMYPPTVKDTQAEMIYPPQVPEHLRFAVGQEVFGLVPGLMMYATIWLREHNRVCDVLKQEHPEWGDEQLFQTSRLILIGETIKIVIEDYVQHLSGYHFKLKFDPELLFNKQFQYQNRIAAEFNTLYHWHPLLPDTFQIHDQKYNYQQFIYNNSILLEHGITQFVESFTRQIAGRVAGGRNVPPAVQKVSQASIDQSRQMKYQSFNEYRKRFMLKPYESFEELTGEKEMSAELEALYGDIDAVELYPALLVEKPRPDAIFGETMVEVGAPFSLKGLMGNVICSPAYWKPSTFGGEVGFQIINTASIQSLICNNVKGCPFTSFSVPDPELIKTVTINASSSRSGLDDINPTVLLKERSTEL
Experimental: (§1) To conduct the cyclooxygenase inhibition assay, we utilized a kit from the manufacturer that contained 150 μL of assay buffer, 10 μL of heme, and 10 μL of either COX-1 or COX-2 enzyme. Each sample was prepared in triplicate, with the addition of 10–500 μM of the test compounds and […] of solvents such as methanol, ethanol, and dimethyl sulfoxide (DMSO). We then added 20 μL of N,N,N cent,N cent-tetramethyl-p-phenylenediamine (TMPD) to each well. Arachidonic acid was introduced to initiate the reaction, which was allowed to proceed for 2 min. Following the incubation period, the extent of TMPD oxidation was measured using the multiscan Go microplate reader at a wavelength of 590 nm (Thermo Fisher Scientific, Waltham, MA, USA).
Cyclooxygenase (COX) peroxidase activity was evaluated using a colorimetric assay. […] The incubation period was maintained at 2 min, following the manufacturer’s guidelines. […] IC50 values were then calculated, and the ratio of IC50 values for both cyclooxygenase isoforms allowed us to assess the selectivity of the tested structures for COX-1 and COX-2.

COX-1 = molecular target: T2, COX-1 (Ovis aries, UniProt P05979); test: as above; format: biochemical; settings: incubation 2 min; mean ± SD
T2 construct: purchased
T2 sequence (P05979 25-600): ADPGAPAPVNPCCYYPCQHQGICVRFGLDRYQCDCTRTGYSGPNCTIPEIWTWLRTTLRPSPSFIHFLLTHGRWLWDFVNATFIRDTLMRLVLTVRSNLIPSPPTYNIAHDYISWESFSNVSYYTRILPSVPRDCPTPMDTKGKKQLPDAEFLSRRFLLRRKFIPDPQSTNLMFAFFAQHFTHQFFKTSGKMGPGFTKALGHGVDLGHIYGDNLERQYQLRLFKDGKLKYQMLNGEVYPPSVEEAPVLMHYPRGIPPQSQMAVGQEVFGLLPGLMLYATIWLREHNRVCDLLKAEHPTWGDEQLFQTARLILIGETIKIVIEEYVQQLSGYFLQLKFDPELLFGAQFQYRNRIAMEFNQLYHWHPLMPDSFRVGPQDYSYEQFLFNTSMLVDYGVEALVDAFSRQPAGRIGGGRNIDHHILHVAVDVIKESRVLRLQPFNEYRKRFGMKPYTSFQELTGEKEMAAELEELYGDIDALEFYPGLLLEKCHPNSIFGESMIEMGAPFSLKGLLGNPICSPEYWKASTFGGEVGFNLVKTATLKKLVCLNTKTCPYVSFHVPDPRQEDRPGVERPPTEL
Experimental: as §1
Cyclooxygenase (COX) peroxidase activity was evaluated using a colorimetric assay. […] The incubation period was maintained at 2 min, following the manufacturer’s guidelines. […] We determined the concentrations of all compounds required for 50% inhibition of COX-1 and COX-2. IC50 values were then calculated, and the ratio of IC50 values for both cyclooxygenase isoforms allowed us to assess the selectivity of the tested structures for COX-1 and COX-2.

[3] = tested on: NHDF (normal human dermal fibroblast) cells; test: MTT cytotoxicity assay; format: cell-based; settings: NHDF cell cultures, 24 h incubation, mean ± SD
Experimental: NHDF (normal human dermal fibroblast) cells, sourced from the American Type Culture Collection (ATCC), were maintained in DMEM without phenol red, enhanced with 10% fetal bovine serum (FBS), 2 mM L-glutamine, and 25 μg/mL gentamicin. The cells were incubated under conditions of 5% CO2, at a temperature of 37 °C, and 95% humidity. We monitored the cells bi-weekly, utilizing or subculturing them once they reached over 70% confluence. For all experimental setups, cells were plated at a density of 10,000 cells per well and allowed to recover in a CO2 incubator for 24 h.
The compounds under investigation were dissolved in DMSO to achieve a final concentration of 10 mM and then stored at −20 °C. Lipopolysaccharide (LPS) from Escherichia coli (Sigma-Aldrich, Saint Louis, MO, USA; catalog no. L2630) was dissolved in distilled water to a concentration of […]. The stock solution of LPS was stored at −20 °C for up to 6 months. Final concentrations of LPS used in this study were 50 µg/mL. Prior to use, the solutions were thawed at room temperature. For each compound, 8 different concentrations in the range of 500–10 μM were prepared in the culture medium.
The cytotoxicity of the test compound was assessed using the MTT assay. After cell seeding and overnight incubation, the supernatant was removed, and the compounds were added at concentrations ranging from 500 to 10 µM. Control cells were treated with complete medium only, while cells treated with medium containing DMSO at the highest compound concentration were included as the solvent control. After the incubation period, the supernatant was removed, and 50 µL of a 1.0 mg/mL MTT solution was added to each well and incubated for 2 h at 37 °C. The medium was then removed, and 100 µL of DMSO was added to each well. Finally, absorbance was measured at 570 nm using a Multiskan GO spectrophotometer.
Cell viability was calculated according to Equation (1): (Ai − Am)/(Ac − Am) × 100(Ai − Am)/(Ac − Am) × 100(1) where Ai is the absorbance of the tested concentration, Am is the absorbance of the medium, and Ac is the absorbance of the control. Based on the cytotoxicity test results, the IC50 was calculated using a 4-point lognormal distribution with a Hill coefficient. Experiments were performed in triplicate.

IL-6 = test: Gene expression by real-time RT-PCR; format: cell-based, human; settings: inflamed NHDF cells, 10 µM, 24 h
Experimental: (§2) The NHDF cells were treated according to the previously outlined procedure. The control and LPS groups were incubated separately in culture dishes containing DMEM, while the test compounds groups were placed in dishes with 10 µM BS23 and BS28, respectively. After a 24 h incubation at 37 °C in a 5% CO2 atmosphere, the NHDF cells were scraped from the bottom of the microplate using a rubber, and then they were centrifuged at 9000× g for 5 min. The pellet was washed with ice-cold PBS twice. RNA was isolated using a Total RNA Mini Plus kit (A&A Biotechnology, Gdańsk, Poland) followed by DNase I (Thermo Fisher Scientific, Waltham, MA, USA) treatment according to the producer’s instructions. cDNA synthesis was performed using a Fast Gene Scriptase II cDNA (Nippon Genetics Europe, Duren, Germany). RT-qPCR analyses were performed using the DyNAmo Flash SYBR Green qPCR Kit (Thermo Fisher Scientific, Waltham, MA, USA) and the CFX Connect Real-Time PCR Detection System (Bio-Rad, Hercules, CA, USA) . Relative gene expression was normalized to the reference gene, β-actin, using the 2^−ΔΔCT method. The primer sequences utilized in this study were as follows: IL-6: F, 5′-[…]-3′; R, 5′-[…]-3′; TNF-α: F, 5′-[…]-3′; R, 5′-[…]-3′; β-actin: F, 5′-[…]-3′; R, 5′-[…]-3′. All experiments were performed at least three times.

TNF-α = test: Gene expression by real-time RT-PCR; format: cell-based, human; settings: inflamed NHDF cells, 10 µM, 24 h
Experimental: as §2

[4] = tested on: NHDF cells exposed to LPS; test: Inflammation model, MTT assay after LPS; format: cell-based, human; settings: LPS 50 µg/mL 24 h, then compound 10, 50, 100 µM 24 h
Experimental: Cells seeded in 96-well plates were treated with 50 ug/mL LPS for 24 h for the MTT assay or 1 h for the DCF-DA assay. […] After this time, MTT and DCF-DA assays were performed according to the procedure described in Wiatrak et al.

Row | IC50 [1] | IC50 [2] | IC50 (COX-2) | Selectivity Ratio: (COX-2/COX-1) (COX-2) | IC50 (COX-1) | SMILES | IC50 [3] | expression of IL-6 mRNA compared to the LPS group (IL-6) | expression of TNF-α mRNA compared to the LPS group (TNF-α) | cell viability after LPS then compound [4]
1 | > 500 µM | 88.3 ± 1.6 µM | 59.2 ± 3.7 µM | 0.49 | 122 ± 3.4 µM | O=C(C1=C(O)c2ccccc2S(=O)(=O)N1CCCN1CCN(c2ncccn2)CC1)c1ccc(Br)cc1 [BS30] | 168 ± 30.4 µM |  |  | 
2 | > 500 µM | 63.2 ± 2.8 µM | 26.3 ± 3.4 µM | 0.21 | 127 ± 3.6 µM | COc1ccc(C(=O)C2=C(O)c3ccccc3S(=O)(=O)N2CCCN2CCN(c3ncccn3)CC2)cc1 [BS24] | 163 ± 15.7 µM |  |  | 
3 | > 500 µM | 83.3 ± 2.5 µM | 25.6 ± 2 µM | 0.22 | 117 ± 4.3 µM | O=C(C1=C(O)c2ccccc2S(=O)(=O)N1CCCN1CCN(c2ncccn2)CC1)c1ccc(F)cc1 [BS27] | 191 ± 12.5 µM |  |  | 
4 | > 500 µM | 83.7 ± 3.2 µM | 18.2 ± 4.3 µM | 0.14 | 129 ± 9.1 µM | O=C(C1=C(O)c2ccccc2S(=O)(=O)N1CCCN1CCN(c2ccccn2)CC1)c1ccc(F)cc1 [BS26] | 203 ± 22.9 µM |  |  | 
5 | > 500 µM | 54.2 ± 2.2 µM | 13.2 ± 2.1 µM | 0.05 | 242 ± 4.2 µM | COc1ccc(C(=O)C2=C(O)c3ccccc3S(=O)(=O)N2CCCN2CCN(c3ccccn3)CC2)cc1 [BS23] | 228 ± 28.1 µM | markedly reduced | markedly reduced | around 70 % of the value for untreated (control) cells
6 | > 500 µM | 75.3 ± 1.4 µM | 62.6 ± 1.7 µM | 0.48 | 131 ± 7.5 µM | Cc1ccc(C(=O)C2=C(O)c3ccccc3S(=O)(=O)N2CCCN2CCN(c3ccccn3)CC2)cc1 [BS25] | 200 ± 20.9 µM |  |  | 

The next lines start with the compound.

Row | SMILES | IC50 [1] | IC50 [2] | IC50 (COX-2) | Selectivity Ratio: (COX-2/COX-1) (COX-2) | IC50 (COX-1) | IC50 [3] | expression of IL-6 mRNA compared to the LPS group (IL-6) | expression of TNF-α mRNA compared to the LPS group (TNF-α) | cell viability after LPS then compound [4]
7 | O=C(C1=C(O)c2ccccc2S(=O)(=O)N1CCCN1CCN(c2ccccn2)CC1)c1ccc(Br)cc1 [BS29] | > 500 µM | 53.7 ± 1.7 µM | 17.8 ± 2.1 µM | 0.14 | 125 ± 6.7 µM | 233 ± 11.8 µM |  |  | 
8 | Cc1cnc(NC(=O)C2=C(O)c3ccccc3S(=O)(=O)N2C)s1 [meloxicam, reference compound] | > 500 µM | 89.5 ± 1.5 µM |  |  |  | 174 ± 20.3 µM |  |  | 
9 | O=C(C1=C(O)c2ccccc2S(=O)(=O)N1CC(=O)N1CCN(c2ccccc2)CC1)c1ccc(Br)cc1 [BS28, 3-(4-Bromobenzoyl)-2-[2-(4-phenylpiperazin-1-yl)-2-oxoethyl]-4-hydroxy-2H-1,2-benzothiazine 1,1-dioxide] | > 500 µM | 88.4 ± 1.9 µM | 12.5 ± 1.9 µM | 0.13 | 95.9 ± 5.7 µM | 180 ± 13.6 µM | markedly reduced | markedly reduced | 
10 | O=C1O[C@H]([C@@H](O)CO)C(O)=C1O [ascorbic acid, reference compound] | 218.3 ± 1.8 µM | 124 ± 2.3 µM |  |  |  |  |  |  | 
